We go through six molecules from US3962321A, “Enhancement of coffee flavor” (General Foods Corporation, priority 1973, dated 1976).

Series [1] in a line: Expert taster flavor and aroma levels (threshold, recognition, fatty flavor) in regular or soluble coffee brew. As to conditions: about 1 to 1.5% coffee solids brew; for Recognition Level: woody note. From the text: The threshold level is that quantity of flavoring producing a change in cup flavor and aroma, but a change which cannot be described as a particular flavor. The recognition level is the quantity of flavoring which can be defined as imparting a woody note to the brew. The fatty level is that point where the undesirable fatty flavor becomes apparent and detracts from the woody character of the flavoring noted at lower levels.

Series [2] is described as follows: General flavor characterization by flavor experts. As to conditions: 50 ppm or higher.
Series [3] is described as follows: Taste comparison in instant Maxwell House coffee beverage (Example XI). The note with it: for Taste comparison with control: 1.35% coffee solids (Example XIA). The text has this:
A. A taste comparison was made of instant Maxwell House brand coffee beverage containing 1.35% coffee solids enhanced with 1 ppb and 2 ppb trans-2-nonenal.
B. Example XIA was repeated employing a broader range of flavor enhancement.

A short description of series [4]: Taste comparison in spray dried instant Maxwell House coffee containing synthetic winey, buttery flavor (Example XII). As to conditions: 2 ppb; 1.35% coffee solids brew. From the text: Spray dried instant Maxwell House brand coffee containing a synthetic, winey, buttery flavor was compared to an identical sample containing an additional 2ppb trans-2-nonenal.
A short description of series [5]: Taste comparison in freeze dried Maxim soluble coffee (Example XIII).
The nature of series [6]: Taste comparison in freeze dried Maxim soluble coffee with steam generated aroma (Example XIV). The note with it: 2 ppb.
The nature of series [7]: Flavor evaluation in water and soluble coffee (Example XVI). The text has this:
A ten percent ethanolic solution of trans-2-nonenal (Compagnie Parento, Croton-on-Hudson, New York) was passed through a Perkin-Elmer model 900 gas chromatography unit having a 6-foot by 1/8 inch column packed with 10% diethylene glycol succinate polyester on 80/90 Anakrom ABS.

The nature of series [8]: Expert panel flavor evaluation in instant Maxwell House coffee (Example XVII). The note with it: two parts per billion; 1.35% coffee solids. From the text: An expert panel flavor evaluation was made of trans-2-nonenal, purified as in Example XVI, at a level of two parts per billion in instant Maxwell House brand soluble coffee at a 1.35% coffee solids concentration.
Series [9] can be described thus: Flavor comparison in Sanka decaffeinated soluble coffee (Example XVIII). As to conditions: 2 ppb.
A short description of series [10]: Flavor evaluation of retention on freeze drying of coffee extract (Example XX). The class given is physicochemical. As to conditions: theoretical 2 ppb. As for the experimental part: Trans-2-nonenal (5 mg in one ml of ethanol) is added to 500 ml of distilled water and the aqueous mixture poured into 52 pounds of coffee extract of 28.2% coffee solids. The coffee-nonenal mixture is stirred and then poured into trays and frozen to form 3/8 inch thick slabs. Control slabs are also prepared from the same extract without the addition of flavors.
The slabs are freeze dried in a 50 square foot Stokes Freeze Drier under 150 microns pressure. […] Condenser temperature is maintained at -40°F.
A flavor evaluation is made by dissolving 0.65 gms of trans-2-nonenal aromatized freeze dried coffee and 2.60 gms of freeze dried control in eight bunces of hot water to give a theoretical 2 ppb concentration. Control cups are prepared by dissolving 3.25 gms of freeze dried control coffee in eight ounces of hot water and adding thereto 10 microliters of a 5 ml aqueous solution containing 0.25 mg trans-2-nonenal to give a 2 ppb concentration.

The nature of series [11]: Triangular odd cup flavor evaluation of retention on spray drying of coffee extract (Example XXI). The class given is physicochemical. As for the experimental part: To 500 ml of distilled water is added 2.34 mg of trans-2-nonenal dissolved in 1 ml of ethanol. The aqueous mix is added to 40 pounds of coffee extract (24.5% solids) and the mixture is spray dried.
Unaromatized extract is spray dried umder equivalent conditions for use as a control. A flavor evaluation is made by dissolving 3.25 g of the aromatized coffee in eight ounces of hot water. Control cups are prepared by dissolving in each cup 3.25 g of control coffee in eight ounces of hot water and then adding thereto 10 microliters of a solution of 0.24 mg trans-2-nonenal in 5 ml of water.

The nature of series [12]: Flavor comparison in 100% Robusta spray dried soluble coffee (Example XXIV). As to conditions: 2 ppb.
Series [13] can be described thus: Evaluation in various foodstuffs versus control (Example XXV). How it is done: To various foodstuffs is added minute amounts of the enhancing compounds of this invention at the proportions indicated. The foodstuffs are then evaluated by comparison to a control not containing the enhancer.
Series [14] can be described thus: Taste comparison in instant Postum beverage (Example XXVI). As for the experimental part: A solution of trans-2-nonenal was prepared by dissolving 20 mg of the aldehyde in 50 ml of ethanol. One half of a milliliter of the resulting solution was then dissolved in 50 ml of spring water to yield a 0.2 mg/50 ml solution. The spring water solution was employed to prepare enhanced instant Postum by adding a sufficient amount to two grams of Postum dissolved in 200 ml of boiling spring water to give 5, 10, 20, and 30 ppb concentrations of nonenal in the hot Postum beverage. These beverages were compared with a control of 2 grams Postum dissolved in 200 ml boiling spring water by several expert tasters.

Series [15] is described as follows: Flavor effect in whisky and carbonated and non-carbonated beverages.

The structures appear in SMILES notation. Entries after “also recorded” stand apart in the source; their conditions may differ.

For the molecule `CCCCCC/C=C/C(OC)OC` [trans-2-nonene dimethyl Acetal, trans-2-nonene dimethyl acetal], in series [1], the “Threshold Level” value is recorded as 0.03 ppb, the “Undesired Fatty Flavor Becoming Apparent” value turned out to be 800 ppb and the “Recognition Level” value came out at 0.08 ppb.
As for `CCCCCC/C=C/C(OCC)OCC` [trans-2-nonene diethyl acetal], in series [1], the “Threshold Level” value worked out at 0.02 ppb, the “Undesired Fatty Flavor Becoming Apparent” value is given as 1200 ppb and the “Recognition Level” value was determined as 0.03 ppb.
The corresponding values for `CCCCCC/C=C/COC(C)=O` [trans-2-nonenylacetate, Trans-2-nonenyl acetate] are 100 ppb, 1500 ppb and 200 ppb.
In the case of `CCCCCC/C=C/C=O` [trans-2-nonenal], in series [1], the “Threshold Level” value was 0.05-0.2 ppb. In addition, the “Undesired Fatty Flavor Becoming Apparent” value in [1] came to 16 ppb. In addition, the “Recognition Level” value in series [1] is 0.4-0.6 ppb. Besides, in series [2], the “Flavor when tasted at conventional flavor concentrations” value was “unpleasant, rancid fat flavor”. The “Flavor Comments” value in series [3] (0.2 ppb in the brew) is “detectable subtle flavor”; in series [3] (0.4 ppb in the brew), “subtle recognition of woodiness”; in series [3] (0.6 ppb in the brew), “definite recognition of woodiness”; in series [3] (1 ppb in the brew), “woody and smoother”; in series [3] (2 ppb in the brew) it was “woody and groundsy”; in [3] (8 ppb in the brew), “high woody impact”. The “Flavor Comments” value in series [3] (16 ppb in the brew) was “tallowy flavor”; in series [3] (30 ppb in the brew) it was “burnt, fatty”; in series [3] (40 ppb in the brew) it was “burnt, fatty and rancid”. In addition, the “Taste comparison with control” value in [3] (1 ppb) is “did not give a detectable woody flavor, but did balance or blend the coffee flavor and masked the caramel and acid flavor of the control”; in [3] (2 ppb) it was “improved woody regular coffee flavor and lacked the typical caramel and acid notes of the control”; in series [5] (1 ppb), “while woodiness was not evident, there was an improved balanced cup flavor and a reduction in sourness”; in [5] (2 ppb), “improved woody regular coffee note. In addition, the typically winey and buttery notes of the coffee were better balanced and the typical sourness of the brew was masked”. The “Flavor comparison with identical sample without additive” value in [4] was “very desirable balanced flavor, having prominent winey, buttery and woody regular coffee notes”. The “Flavor comparison with control” value in series [6] was “very good regular coffee flavor, the brew having improved cup flavor and lacking sourness when compared to the control”; in series [9] it was “improved woody flavor and good balance of cup flavor and aroma”; in [12], “improved woody cup flavor and aroma”. Also, the Flavor in water result in series [7] (2 ppb and 20 ppb in water) is listed as “regular coffee flavor characterized by experts as woody or spent grounds”. In addition, the “Concentration at which expert tasters find undesirable flavors” value in [7] (not apparent to less skilled tasters) was “about 16 ppm”. The “Expert panel flavor evaluation” value in [8] was “slight spent grounds flavor which improved the regular brewed character of the coffee; also recorded: desirable blending or mixing of flavor and a secondary aromatic flavor similar to that produced by the addition of steam generated aroma”. Further, the “Loss of aroma during freeze drying” value in series [10] was “slight loss of trans-2-nonenal aroma during freeze drying”. For the same molecule, the “Woody flavor of freeze dried aromatized sample relative to control” value in series [10] (after freeze drying) is given as “about ninety”. Moreover, the “Loss during spray drying” value in [11] was “no significant loss of trans-2-nonenal during spray drying”. The “Difference between aromatized and control cups” value in series [11] (triangular, odd cup flavor evaluation) is “no difference between the cups”. Further, the Evaluation result in series [13] (Ex. 1 Cola beverage, 2 ppb) was “Woody”; in [13] (Ex. 2 Pear nectar, 1 ppb), “Increased pear flavor”; in series [13] (Ex. 3 Ginger ale, 2 ppb), “Woody”; in [13] (Ex. 5 Cranberry juice, 2 ppb), “Woody”; in [13] (Ex. 7 Condensed beef broth, 2 ppb) it was “High woody”; in [13] (Ex. 8 Root Beer beverage, 1 ppb), “Enhanced flavor”. Also, the Evaluation entry is on record as “High woody” in series [13] (Ex. 8 Root Beer beverage, 2 ppb); “High woody” in series [13] (Ex. 9 Creme Soda, 2 ppb); “Woody” in [13] (Ex. 11 Cherry gelatin dessert, 2 ppb); “Woody” in series [13] (Ex. 12 Artificially sweetened cola beverage, 2 ppb); “Higher flavor impact” in series [13] (Ex. 13 Meat broth, 1 ppb). Besides, in series [14], the “Effect on molasses flavor and woody flavor of Postum” value is “reduced appreciably the characteristic molasses flavor of Postum and imparted a slight woody flavor”. Moreover, in series [14], the “Effect on sweet, cereal taste of Postum” value was “significant reduction in the sweet, cereal taste of the beverage”. For the same molecule, the Taste preference result in series [14] (5 ppb and 10 ppb) is given as “preferred”. Besides, in series [15], the Flavor in beverages entry was “low level woody note not detectable as coffee flavor which enhances the basic flavor of the beverage”.
As for `CCCCCC/C=C\COC(C)=O` [cis-2-nonenyl acetate], in series [1], the “Threshold Level” value is listed as 50 ppb, the “Undesired Fatty Flavor Becoming Apparent” value was determined as 1500 ppb and the “Recognition Level” value is listed as 150 ppb.
The corresponding values for `CCCCCC/C=C/C1OCCO1` [1-Octenyl-1-dioxolane, trans-1-octenyl-2-dioxolane] are 0.3 ppb, 1000 ppb and 0.8 ppb.
